According to patent US9428519B2, “Acylated derivative of homoharringtonine, preparation method therefor, and application thereof” (HANGZHOU BENSHENG PHARMACEUTICAL CO., LTD., priority 2011, dated 2016):
Values after ≈ are worked out from the molar mass of the structure shown.

How the values were obtained:
[1] = system: Hela (human cervical cancer cell); assay: MTT growth inhibition of human solid tumor cells, 72 h; format: cell-based
In short: (§1)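 4000 cells/well, DMEM high glucose + 10% FBS, 37° C, 5% CO2; 24 h attachment. Add compound, various concentrations, 72 h. MTT readout; % viability vs untreated control (100%).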

[2] = system: SK-OV-3 (ovarian cancer cell); assay: as above; format: cell-based
In short: as §1

[3] = system: U87 MG (malignant glioma cell); assay: as above; format: cell-based; conditions: Homo sapiens, U-87 MG
In short: as §1

[4] = system: PANC-1 (pancreatic cancer); assay: as above; format: cell-based
In short: as §1

PC-3 (prostate cancer) = assay: as above; format: cell-based
In short: as §1

MG63 (osteosarcoma) = assay: as above; format: cell-based
In short: as §1

[5] = system: CNE (nasopharyngeal carcinoma cell); assay: as above; format: cell-based; conditions: Homo sapiens, MTT
In short: as §1

[6] = system: MGC 803 (human gastric cancer cell); assay: as above; format: cell-based; conditions: Homo sapiens, MGC-803
In short: as §1

[7] = system: CaES-17 (esophageal cancer cell); assay: as above; format: cell-based; conditions: Homo sapiens, CaEs17
In short: as §1

[8] = system: Becap37 (human breast cancer cell); assay: as above; format: cell-based; conditions: Homo sapiens
In short: as §1

[9] = system: Hep-2 (laryngeal carcinoma); assay: as above; format: cell-based; conditions: Homo sapiens, HEp-2
In short: as §1

[10] = system: RKO (human colon adenocarcinoma cell); assay: as above; format: cell-based
In short: as §1

[11] = system: Huh7 (human liver cancer cell); assay: as above; format: cell-based; conditions: Homo sapiens, Huh-7
In short: as §1

A549 (human lung cancer) = assay: as above; format: cell-based; conditions: Homo sapiens, A549
In short: as §1

[12] = system: Jurkat (acute lymphoblastic leukemia, ALL); assay: MTT growth inhibition of leukemia cells, 72 h; format: cell-based, human; conditions: Homo sapiens, Jurkat
In short: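 Growth inhibition of the Jurkat ALL line was measured by MTT after 72 hours of compound exposure at 37° C. under 5% CO2. Wells of a 96-well plate held 6000 cells in 1640 medium plus 10% fetal bovine serum; untreated controls defined 100% viability, and inhibitory concentrations were derived from percent viability.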

[13] = system: NB4 (acute promyelocytic leukemia, AML); assay: MTT growth inhibition of leukemia cells, 72 h; format: cell-based, human
In short: (§2)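 Readout: MTT viability after 72 h, untreated wells = 100%, IC50 derived from viability across concentrations. Cells seeded at 6000/well in 1640 medium + 10% FBS, dosed with a concentration series, held at 37 °C under 5% CO2.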

[14] = system: K562/adr (drug-resistant, chronic myeloid leukemia, CML); assay: MTT growth inhibition of leukemia cells, 72 h; format: cell-based, human
In short: as §2

[15] = system: Kasumi-1 (acute myeloid leukemia M2 type, AML-M2); assay: MTT growth inhibition of leukemia cells, 72 h; format: cell-based, human
In short: as §2

[16] = system: H9 (acute lymphoblastic leukemia, ALL); assay: MTT growth inhibition of leukemia cells, 72 h; format: cell-based, human
In short: as §2

[17] = system: RPMI8226 (multiple myeloma); assay: MTT growth inhibition of multiple myeloma cells, 72 h; format: cell-based, human
In short: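 Growth inhibition read by MTT after 72 h compound exposure (37 °C, 5% CO2) of 6000 RPMI8226 cells per well in 1640 medium plus 10% fetal bovine serum. Viability expressed against untreated cells (100%), from which the 72 h IC50 was derived.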

COC(=O)C[C@](O)(CCCC(C)(C)OC(C)=O)C(=O)O[C@@H]1C(OC)=C[C@]23CCCN2CCc2cc4c(cc2[C@H]13)OCO4 [BS-HH-002, 6-acetylhomoharringtonine]
IC50 ([1]; Homo sapiens, HeLa, MTT): 0.0077 µg/mL (≈ 0.0131 µM) | IC90 ([1]; Homo sapiens, HeLa, MTT): 16 µg/mL (≈ 27.2 µM) | anti-Hela effect relative to homoharringtonine ([1]; vs HHT): more than 2.5 fold | IC50 ([2]; Homo sapiens, SK-OV-3, MTT): 0.05 µg/mL (≈ 0.0851 µM) | IC90 ([2]; Homo sapiens, SK-OV-3, MTT): > 16 µg/mL | anti-SK-OV-3 effect relative to homoharringtonine ([2]; vs HHT): 2 fold | IC50 [3]: 0.002 µg/mL (≈ 0.0034 µM) | IC90 [3]: 0.012 µg/mL (≈ 0.0204 µM) | IC50 ([4]; Homo sapiens, PANC-1, MTT): 0.012 µg/mL (≈ 0.0204 µM) | IC90 ([4]; Homo sapiens, PANC-1, MTT): > 16 µg/mL | anti-PANC-1 effect relative to homoharringtonine ([4]; vs HHT): more than 3 fold | IC50 (PC-3 (prostate cancer); Homo sapiens, MTT): 0.013 µg/mL (≈ 0.0221 µM) | IC90 (PC-3 (prostate cancer); Homo sapiens, MTT): > 16 µg/mL | anti-PC-3 effect relative to homoharringtonine (PC-3 (prostate cancer); vs HHT): more than 6 fold | IC50 (MG63 (osteosarcoma); Homo sapiens, MG-63, MTT): 0.006 µg/mL (≈ 0.0102 µM) | IC90 (MG63 (osteosarcoma); Homo sapiens, MG-63, MTT): 0.42 µg/mL (≈ 0.715 µM) | anti-MG63 effect relative to homoharringtonine (MG63 (osteosarcoma); vs HHT): substantially superior | IC50 [5]: 0.024 µg/mL (≈ 0.0408 µM) | IC90 [5]: > 16 µg/mL | IC50 [6]: 0.008 µg/mL (≈ 0.0136 µM) | IC90 [6]: 0.056 µg/mL (≈ 0.0953 µM) | IC50 [7]: 0.02 µg/mL (≈ 0.034 µM) | IC90 [7]: > 16 µg/mL | IC50 [8]: 0.005 µg/mL (≈ 0.00851 µM) | IC90 [8]: 16 µg/mL (≈ 27.2 µM) | IC50 [9]: 0.0037 µg/mL (≈ 0.0063 µM) | IC90 [9]: > 16 µg/mL | IC50 ([10]; Homo sapiens, MTT): 0.002 µg/mL (≈ 0.0034 µM) | IC90 ([10]; Homo sapiens, MTT): 0.01 µg/mL (≈ 0.017 µM) | anti-RKO effect relative to homoharringtonine ([10]; vs HHT): substantially superior | IC50 [11]: 0.0021 µg/mL (≈ 0.00357 µM) | IC90 [11]: 0.018 µg/mL (≈ 0.0306 µM) | IC50 (A549 (human lung cancer)): 0.013 µg/mL (≈ 0.0221 µM) | IC90 (A549 (human lung cancer)): > 16 µg/mL | IC50 [12]: 0.003 µg/mL (≈ 0.0051 µM) | IC90 [12]: ≥ 16 µg/mL | IC50 ([13]; Homo sapiens, MTT): 0.002 µg/mL (≈ 0.0034 µM) | IC90 ([13]; Homo sapiens, MTT): 0.006 µg/mL (≈ 0.0102 µM) | improvement of anti-NB4 activity compared with homoharringtonine ([13]; vs HHT): more than 3 fold | IC50 ([14]; Homo sapiens, K562/Adr, MTT): 0.015 µg/mL (≈ 0.0255 µM) | IC90 ([14]; Homo sapiens, K562/Adr, MTT): 0.31 µg/mL (≈ 0.528 µM) | improvement of anti-K562/adr activity compared with homoharringtonine ([14]; vs HHT): more than 3.2 fold | IC50 ([15]; Homo sapiens, Kasumi 1, MTT): 0.002 µg/mL (≈ 0.0034 µM) | IC90 ([15]; Homo sapiens, Kasumi 1, MTT): 0.007 µg/mL (≈ 0.0119 µM) | improvement of anti-Kasumi-1 activity compared with homoharringtonine ([15]; vs HHT): more than 3.4 fold | IC50 ([16]; Homo sapiens, MTT): 0.004 µg/mL (≈ 0.00681 µM) | IC90 ([16]; Homo sapiens, MTT): 0.01 µg/mL (≈ 0.017 µM) | improvement of anti-H9 activity compared with homoharringtonine ([16]; vs HHT): more than 5 fold | anti-RPMI8226 (multiple myeloma) effectiveness [17]: particularly effective | IC50 ([17]; Homo sapiens, RPMI-8226, MTT): 0.003 µg/mL (≈ 0.0051 µM) | IC90 ([17]; Homo sapiens, RPMI-8226, MTT): 0.018 µg/mL (≈ 0.0306 µM)
